Results: PubChem BioAssay AID2305 (GlaxoSmithKline (GSK), 2010)

System: P. falciparum 3D7 growth, pLDH absorbance
Assay: P. falciparum 3D7 growth inhibition, dose response, strain 3D7 (AID 2305)

SMILES | IC50 [nM]
CCc1ccc(NC(=O)c2cccc(CN3CCCN(Cc4cccc(O)c4)CC3)c2)cc1 | 890
O=C(Nc1cccc(-c2cccc(-c3nc4ccc(F)cc4[nH]3)c2)c1)Nc1ccc(F)c(F)c1F | 90
COc1ccc2nccc([C@@H](O)CN3CCC(NCc4ccc(OC)c(NC=O)c4)CC3)c2c1 | 750
Cc1sc(CNCCCNc2cc(=O)c3ccccc3[nH]2)cc1Br | 760
CCOCc1cnc(C)nc1CNC(=O)c1c(C)[nH]c2ccc(C)cc12 | 1010
CC1(C)N=C(N)N=C(N)N1OCc1cc(Cl)c(Cl)cc1CON1C(N)=NC(N)=NC1(C)C | 10
COc1ccc(CNCc2ccccc2)cc1-c1ccc(S(=O)(=O)NCCN2CCCC2)s1 | 670
COc1cc2c(cc1S(=O)(=O)c1ccc(NC(=O)Nc3ccc(F)cc3)cc1)CCN(C)CC2 | 470
O=C(Nc1ccccc1Br)N[C@@H]1CCN(c2ccnc3ccccc23)C1 | 940
CC(C)(CNC(=O)[C@H]1CCCN1)c1nc(-c2ccc(Cl)c(O)c2)c(-c2ccncc2)[nH]1 | 1270
Cn1nccc1C(=O)NCCNCc1ccc(-c2ccc(-c3nc4ccc(C(F)(F)F)cc4[nH]3)cc2)cc1 | 150
CC[C@H](C)CNC(=O)c1cncc(-c2ccc(CNCCOc3ccccc3)cc2)c1 | 1110
Cc1cc(N)c2cc(NC(=O)c3cccc(C(=O)Nc4ccc5nc(C)cc(N)c5c4)c3)ccc2n1 | 260
Cc1cc(N[C@@H](Cc2ccccc2)C(=O)NCc2cccs2)nc(NCCc2ccccc2)n1 | 790
Nc1nc(N)c2nc(C3CC=CCC3)c(N)nc2n1 (stereo not drawn) | 160
Cc1cc(NC(=O)Nc2ccc(C#N)cc2)c2ccccc2n1 | 570
Cc1cc(-c2ccc3occ(CCN)c3c2)cnc1N | 880
COc1ccc2nccc(N3CCC(NCCNCc4ccc5c(n4)NC(=O)CS5)C3)c2n1 (stereo not drawn) | 690
COc1ccc2nccc([C@@H](O)CN3CCC(NS(=O)(=O)c4cc(Br)c(Br)s4)CC3)c2c1 | 850
COc1ccc(CC(C)NCC(O)c2cccc(C(F)(F)F)c2)cc1F (stereo not drawn) | 830
Cc1cc(N[C@@H](CC(C)C)C(=O)Nc2ccccc2)nc(NCCc2ccccc2)n1 | 890
CCC(C)(C)c1ccc2nc(N)nc(N)c2c1C | 10
C=C[C@]1(C)C[C@@H](OC(=O)NC(=O)C2CCN(C(=O)CSc3ccccc3)CC2)[C@]2(C)[C@H](C)CC[C@]3(CCC(=O)[C@H]32)[C@@H](C)[C@@H]1O | 1010
CCCC(C)NC(=O)c1cnn(-c2ccc(C(C)(C)C)cc2)c1OCc1ccc(Br)cc1 (stereo not drawn) | 1060
COc1ccc(O)cc1/C=N/Nc1ccnc2cc(Cl)ccc12 | 540

SMILES | IC50 [nM]
CCOC(=O)c1ccc(Nc2cc(Nc3ccc(C(=O)OCC)cc3)nc(C)n2)cc1 | 910
Cc1cc(NN=Cc2cccc(Cl)c2)c2cc(F)ccc2n1 | 760
Nc1nc(N)c2c(CCc3ccc(Cl)c(Cl)c3)cccc2n1 | 670
CC(=O)C1=NN(c2ccc(C)cc2)C(c2cccs2)N1c1ccccc1 (stereo not drawn) | 340
COc1ccc(C=NNc2cc(C)nc3ccccc23)c2ccccc12 | 750
O=C(N[C@@H](Cc1cc(F)cc(F)c1)[C@H](O)CNCc1cccc(C(F)(F)F)c1)c1cc(C2CCCC2)cc(N2CCCC2=O)c1 | 800
CC12CCC(C(=O)N(CC(O)Cn3c4ccc(Cl)cc4c4cc(Cl)ccc43)C1=O)C2(C)C (stereo not drawn) | 840
OC[C@H](Nc1nc(C(Oc2ccccc2)c2ccccc2)nc2[nH]ncc12)c1ccccc1 (stereo partly drawn) | 850
CN(c1cc(NC(=O)c2cccs2)ccn1)C1CCN(Cc2ccccc2)CC1 | 1020
Nc1c2c(nc3ccc(NC(=O)c4ccccc4)cc13)CCCC2 | 610
COc1ccc(Nc2nc(C)cc(NCc3ccc(-c4c(C)noc4C)cc3)n2)cc1 | 840
O=C(/C=C/c1ccc(Cl)c(Cl)c1)NCCCCCN1CCC(c2c[nH]c3c(-c4ccccc4)cccc23)CC1 | 250
COc1ccc(CNCc2ccc(F)cc2)cc1-c1ccc(S(=O)(=O)NCCN2CCCC2)s1 | 710
CN(C)C(CNC(=O)c1cc(-c2ccncc2)c(-c2cc3ccccc3[nH]2)o1)c1ccccc1 (stereo not drawn) | 840
CC(C)NCc1ccc(-c2ccc(CN3CCCC(c4ccccc4)C3)cc2)c(C(=O)NCC2CCCCC2)c1 (stereo not drawn) | 720
CC(C)(C)NCCN(Cc1ccc(-c2ccc(C(F)(F)F)cc2)cc1)C(=O)Cn1c(SCc2ccc(F)cc2)nc(=O)c2c1CCC2 | 860
COc1ccc(Cl)cc1-c1nc(C(=O)NCCN2CCCCC2)c(C)s1 | 940
Cc1nc(-c2cccc(Nc3nccc(NCC(O)c4cccc(C(F)(F)F)c4)n3)c2)cs1 (stereo not drawn) | 630
Cc1[nH]c2c(C)cccc2c1C1CCN(CCC2CCN(C(=O)/C=C/c3ccc(Cl)c(Cl)c3)CC2)CC1 | 640
O=S(=O)(NCCN1CCCC1)c1ccc(-c2ccc(CNCc3ccc(F)cc3)cc2)cc1 | 790
Fc1ccc2[nH]c3c(NCCN4CCCCC4)ncnc3c2c1 | 830
Cc1cccc2[nH]c(-c3ccc(-c4ccc(CN5CCC(C(N)=O)CC5)cc4)cc3)nc12 | 930
CCN1CCC(N(Cc2ccc(-c3ccc(C(F)(F)F)s3)cc2)C(=O)Cn2c(CCc3cccc(F)c3F)nc(=O)c3ccccc32)CC1 | 930
NC(N)=NC(=O)Nc1cc(Cl)c(Br)c(Cl)c1 | 470
CCCc1cc(Cc2cnc(N)nc2N)cc(CCC)c1OCCCC(=O)OCC | 50

SMILES | IC50 [nM]
CCCCCn1c(Sc2ccc(C#N)c([N+](=O)[O-])c2)nnc1-c1ccc(Cl)cc1 | 1080
CC(C)Oc1cccc(-c2ccc(C(=O)NCC3CCCN(Cc4cccc(C(F)(F)F)c4)C3)s2)c1 (stereo not drawn) | 1080
O=C(Cc1cccnc1)Nc1cccc(-c2cccc(-c3nc4ccc(C(F)(F)F)cc4[nH]3)c2)c1 | 680
CCOC(=O)c1ccc(NC(=O)c2ccccc2C(=O)O)cc1 | 920
CN1CCCC1CCNCc1ccc(-c2ccc(CNCCc3ccccc3)cn2)cc1 (stereo not drawn) | 1110
CCc1cn2c3c(cc(C(=O)N[C@@H](Cc4ccccc4)[C@H](O)CNCc4ccccc4C)cc13)N(C)S(=O)(=O)CC2 | 270
Cc1cc(NN=Cc2cccc(F)c2)c2cccc(C)c2n1 | 770
O=C(/C=C/c1ccc(C(F)(F)F)cc1)NCCCCCN1CCCN(C(=O)Nc2ccc(F)c(Cl)c2)CC1 | 370
CC1CCN(CC[C@H]2CCCN2S(=O)(=O)c2cccc(NC(=O)Nc3ccc(C(F)(F)F)cc3)c2)CC1 | 720
CC(Cc1ccc(CNC(=O)c2ccc(CC(C)NCCc3cccc(Cl)c3)cc2)cc1)NCCc1cccc(Cl)c1 (stereo not drawn) | 700
c1ccc2c(CNCCCCCCNCc3c(OCC4CC4)ccc4ccccc34)c(OCC3CC3)ccc2c1 | 930
COc1ccc2nccc([C@@H](O)CN3CCC(NCCOc4cc(C(F)(F)F)ccc4F)CC3)c2c1 | 110
Cc1ccc2[nH]c(-c3ccccc3N)cc2c1 | 920
COc1ccc2nccc([C@@H](O)CN3CCC(NC/C=C/c4cccnc4)CC3)c2c1 | 620
Cc1ccc(-n2c(=O)c3cccnc3n2CC(=O)Nc2cccc(C)c2C)cc1 | 860
COc1ccc(C=NNc2nc(-c3ccccc3)cc(=O)[nH]2)cc1OC | 590
Cc1cc(Nc2nc(NCc3cccnc3)nc3ccccc23)n[nH]1 | 850
Fc1cccc(COc2ccc(Nc3ncnc4sc(C#Cc5ncc[nH]5)cc34)cc2Cl)c1 | 130
CC(C)N1CCC(Oc2ccc(CN3CCN(C(c4ccccc4)c4ccc(Cl)cc4)CC3)cc2)CC1 (stereo not drawn) | 940
CCOC(=O)c1cn(CC)c2cc(O[C@H]3CCN(C(=O)OC(C)(C)C)C3)ccc2c1=O | 550
COc1ccccc1CNC(=O)CCn1c(=O)[nH]c2ccsc2c1=O | 1040
Cc1cccc(CNc2nc(C)cc(N[C@@H](Cc3ccccc3)C(=O)NCCOc3ccccc3)n2)c1 | 910
Oc1ccccc1CN1CCC(CCOC(c2ccccc2)c2ccc(Cl)cc2)CC1 (stereo not drawn) | 740
Nc1nccc2ccc(-c3cccc4ncccc34)cc12 | 50
CC(Sc1nc2sccc2c(=O)n1C)C(=O)Nc1ccc2c(c1)OCO2 (stereo not drawn) | 1040

SMILES | IC50 [nM]
CC(C)(C)c1ccc(CN2CCC(NC(=O)c3ccc(-c4cccc(C(F)(F)F)c4)s3)CC2)cc1 | 360
COc1ccc(-c2ccc(NC(=O)c3cccc(Cl)c3)cc2)cc1CN1CCN(C)CC1 | 950
COc1cc(C)cc(CN2CCC(Cc3ccccc3)CC2)c1O | 1020
Cc1ccc(-c2nc3cc(NC(=O)c4ccc([N+](=O)[O-])o4)ccc3o2)cc1Cl | 160
CCc1cn2c3c(cc(C(=O)N[C@@H](Cc4cccc(Cl)c4)[C@H](O)CNC4CCCCC4)cc13)N(C)S(=O)(=O)CC2 | 60
Nc1cc(-c2ccc(Br)cc2O)nc2ccccc12 | 620
COc1ccc(CN2CCC(N3CC(c4ccccc4)(c4ccccc4)OCC3=O)C2)c(O)c1 (stereo not drawn) | 930
CNCCNCc1ccc(-c2ccc(-c3nc4c(C)cccc4[nH]3)cc2)cc1 | 670
COc1cc(O)c2c(=O)c(OC)c(-c3cccc(Cl)c3OC3O[C@H](CO)[C@@H](O)[C@H](O)[C@H]3O)oc2c1OC (stereo partly drawn) | 770
CCCCCN1CCCN(Cc2cccc(NC(=O)c3ccc4ccccc4c3)c2)CC1 | 1220
O=C(NCc1ccc(F)cc1)Nc1ccc(-c2ccc(-c3nc4ccccc4[nH]3)cc2)cc1 | 90
COc1cc(CN2CCC(C(=O)Nc3ccc(-c4cccc(C)c4)cc3)CC2)ccc1O | 1120
Fc1ccc2nc(-c3ccc(-c4ccc(CN5CCN(CCN6CCOCC6)CC5)cc4)cc3)[nH]c2c1 | 180
COc1ccc(CCNCCCCCCNCCc2ccc(Cl)c3ccccc23)cc1OC | 580
CCCC(CC)n1ccc2c3c(N)nc(N)nc3ccc21 (stereo not drawn) | 10
CCC(C)NC(=O)Nc1cccc(-c2cccc(-c3nc4c(C)cccc4[nH]3)c2)c1 (stereo not drawn) | 810
O=C(Nc1ccc(Cl)c(-c2nc3ccccc3[nH]2)c1)c1ccc(-c2ccc(Cl)cc2)o1 | 790
Cc1cccc(CN2CCCN(Cc3cccc(C(=O)Nc4ccc(C(C)(C)C)cc4)c3)CC2)c1 | 930
CNCc1cccc2[nH]c(-c3csc(Cc4cc(Cl)ccc4OCC(C)C)n3)nc12 | 720
COC(=O)C(=C(C)C)N1C(=O)[C@@H](NC(=O)OCc2ccccc2)[C@H]1SS[C@@H]1[C@H](NC(=O)OCc2ccccc2)C(=O)N1C(C(=O)OC)=C(C)C | 430
Cc1[nH]c(C)c(-c2ccc(OCc3ccc(F)cc3)cc2)c(=O)c1Cl | 570
CN(C)CCOc1ccnc2ccc(NC(=O)Cc3ccc(-c4ccncc4)c4ccccc34)cc12 | 280
Cc1ccc(O)cc1Nc1ccnc2cc(-c3csc(CN(C)CCN(C)C)n3)ccc12 | 790
